From PMC5740381 (Antimicrobial Agents and Chemotherapy, 2017)

What was measured:
HIV-1 pNL4-3 = assay: HIV-1 5-day cytoprotection assay in MT4 cells; format: cell-based, human immunodeficiency virus type 1; conditions: Human immunodeficiency virus 1, HIV-1 pNL4-3 infectivity, HIV-1 PI alone
Protocol: . […]. The plates were incubated at 37°C for 5 days. After this period, 25 μl MTT reagent (4 mg/ml) was added to the cells, and the plates were incubated for 4 h. The MTT formazan formed in the cells was solubilized by 50 μl of acidified SDS overnight. The plates were read at wavelengths of 570 and 650 nm using a spectrophotometer. […]

[1] = test system: genotype 1b Con1 replicon cells; assay: Checkerboard combination assay (MacSynergy II); format: cell-based, Hepatitis C virus
Protocol: […]. The resulting data were analyzed using the MacSynergy II program ([34], [51], [52]). The assignment of the synergy or antagonism volumes was based on the guidelines provided in the MacSynergy II program user's manual ([34]).

GT6a / 6a Wild type [2] = biological target: T1, GT6a / 6a Wild type; assay: Luciferase assay of HCV replication in transient-transfection replicons with wild-type or substituted NS3 (at least 3 transfections).; format: cell-based, Huh-7; conditions: SD, n = 3
T1 construct: NS3 N-terminal region in chimeric replicon

GT2b / 2b Wild type = biological target: T2, GT2b / 2b Wild type; assay: as above; format: cell-based, Huh-7; conditions: SD, n = 3
T2 construct: NS3 protease domain (N-terminal 251 aa) in genotype 2a JFH-1 chimeric replicon

3a A156G = biological target: T3, 3a A156G; assay: as above; format: cell-based, Huh-7; conditions: SD, n = 3
T3 construct: in chimeric transient replicon

6a D168A = biological target: T4, 6a D168A; assay: as above; format: cell-based, Huh-7; conditions: SD, n = 3
T4 construct: in chimeric transient replicon

GT4a / 4a Wild type [3] = test system: T5, GT4a / 4a Wild type; assay: Luciferase reporter assay of HCV replication in stable subgenomic replicon cells, 5% fetal bovine serum, no human plasma (at least 3 experiments).; format: cell-based, Huh-7; conditions: SD, n = 3; read-out: HCV stable replicons in 0% human plasma, Mean EC50 ± SD
T5 construct: NS3 N-terminal region in chimeric replicon
Excerpt: (§1) . Five of these nine cell lines have been described previously, including those transfected with genotypes 1a H77, 1b Con1, 3a, 4a, and 6a ([28]). The other four cell lines were established by transfecting cells with a nonchimeric genotype 2a JFH-1 replicon (GenBank accession number AB047639), two genotype 2a JFH-1 chimeric replicons containing either a genotype 2b NS3 protease domain (N-terminal 251 amino acids) or a sequence encoding full-length NS3 through the first 39 amino acids of NS5B from genotype 5a (strain SA13), and one chimeric replicon with a genotype 1b Con1 backbone containing full-length NS3 and NS4A sequences from genotype 6e. The genotype 2b and 6e NS3 sequences were each synthetically constructed based on a consensus sequence derived from the alignment of 15 genotype 2b and 4 genotype 6e sequences, respectively. All replicon constructs were bicistronic subgenomic replicons similar to those described by Bartenschlager and coworkers, and the replicon cell lines were generated by introducing these constructs into cells of an Huh-7 human hepatoma-derived cell line ([50]). The inhibitory effect of the PIs on HCV replication in replicon cells was determined in Dulbecco's modified Eagle medium containing 5% fetal bovine serum with or without 40% human plasma (Bioreclamation, Westbury, NY). The EC50s were determined using nonlinear regression curve fitting as described previously ([33]).

GT3a / 3a Wild type [4] = test system: T6, GT3a / 3a Wild type; assay: as above; format: cell-based, Huh-7; conditions: SD, n = 3; read-out: HCV stable replicons in 0% human plasma, Mean EC50 ± SD
T6 construct: NS3 N-terminal region in chimeric replicon
Excerpt: as §1

GT6a / 6a Wild type [5] = test system: T1, GT6a / 6a Wild type; assay: as above; format: cell-based, Huh-7; conditions: SD, n = 3; read-out: HCV stable replicons in 0% human plasma, Mean EC50 ± SD
Excerpt: as §1

GT6e = test system: T7, GT6e; assay: as above; format: cell-based, Huh-7; conditions: SD, n = 3; read-out: HCV stable replicons in 0% human plasma, Mean EC50 ± SD
T7 construct: full-length NS3 and NS4A in genotype 1b Con1 chimeric replicon
Excerpt: as §1

4d Wild type = biological target: T8, 4d Wild type; assay: Luciferase assay of HCV replication in transient-transfection replicons with wild-type or substituted NS3 (at least 3 transfections).; format: cell-based, Huh-7; conditions: SD, n = 3
T8 construct: NS3 in transient replicon

4a A156T = biological target: T9, 4a A156T; assay: as above; format: cell-based, Huh-7; conditions: SD, n = 3
T9 construct: in chimeric transient replicon

2b D168V = biological target: T10, 2b D168V; assay: as above; format: cell-based, Huh-7; conditions: SD, n = 3
T10 construct: in genotype 2a JFH-1 chimeric transient replicon

2b A156V = biological target: T11, 2b A156V; assay: as above; format: cell-based, Huh-7; conditions: SD, n = 3
T11 construct: in genotype 2a JFH-1 chimeric transient replicon

2b D168A = biological target: T12, 2b D168A; assay: as above; format: cell-based, Huh-7; conditions: SD, n = 3
T12 construct: in genotype 2a JFH-1 chimeric transient replicon

4a D168H = biological target: T13, 4a D168H; assay: as above; format: cell-based, Huh-7; conditions: SD, n = 3
T13 construct: in chimeric transient replicon

6a D168V = biological target: T14, 6a D168V; assay: as above; format: cell-based, Huh-7; conditions: SD, n = 3
T14 construct: in chimeric transient replicon

3a Q168R = biological target: T15, 3a Q168R; assay: as above; format: cell-based, Huh-7; conditions: SD, n = 3
T15 construct: in chimeric transient replicon

4a D168V = biological target: T16, 4a D168V; assay: as above; format: cell-based, Huh-7; conditions: SD, n = 3
T16 construct: in chimeric transient replicon

4a R155C = biological target: T17, 4a R155C; assay: as above; format: cell-based, Huh-7; conditions: SD, n = 3
T17 construct: in chimeric transient replicon

4a A156V = biological target: T18, 4a A156V; assay: as above; format: cell-based, Huh-7; conditions: SD, n = 3
T18 construct: in chimeric transient replicon

2b D168E = biological target: T19, 2b D168E; assay: as above; format: cell-based, Huh-7; conditions: SD, n = 3
T19 construct: in genotype 2a JFH-1 chimeric transient replicon

6a D168H = biological target: T20, 6a D168H; assay: as above; format: cell-based, Huh-7; conditions: SD, n = 3
T20 construct: in chimeric transient replicon

GT3a / 3a Wild type [6] = biological target: T6, GT3a / 3a Wild type; assay: as above; format: cell-based, Huh-7; conditions: SD, n = 3
2b A156T = biological target: T21, 2b A156T; assay: as above; format: cell-based, Huh-7; conditions: SD, n = 3
T21 construct: in genotype 2a JFH-1 chimeric transient replicon

GT4a / 4a Wild type [7] = biological target: T5, GT4a / 4a Wild type; assay: as above; format: cell-based, Huh-7; conditions: SD, n = 3
4d D168V = conditions: read-out: Mean EC50 ± SD, n = 3
Protocol: Mutagenesis was performed using a Change-IT multiple-mutation site-directed mutagenesis kit (USB, Cleveland, OH) or by cloning a synthesized DNA fragment encoding the amino acid substitution(s). The genotype 1a and 1b replicon shuttle vectors used for the introduction of the substitutions of interest in the NS3, NS5A, or NS5B gene for transient-transfection assays have been described previously ([28], [33]). The replicon shuttle vectors used for the introduction of substitutions in NS3 genes from other genotypes were similar to the stable replicon cell line constructs described above, except for the absence of the neo gene. After mutagenesis, the plasmids were linearized and RNA was transcribed and then used to transfect Huh-7 cells. Inhibition of HCV replication by the HCV inhibitors was measured by luciferase assay, as described above. Replication efficiency was calculated as a percentage of wild-type replication, as described previously ([28]).

## Cc1cccc(C)c1OCC(=O)N[C@@H](Cc1ccccc1)[C@@H](O)C[C@H](Cc1ccccc1)NC(=O)[C@H](C(C)C)N1CCCNC1=O [Lopinavir]
HIV-1 pNL4-3
  EC50: 23 nM

## CC(C)CN(C[C@@H](O)[C@H](Cc1ccccc1)NC(=O)O[C@H]1CO[C@H]2OCC[C@H]21)S(=O)(=O)c1ccc(N)cc1 [Darunavir]
HIV-1 pNL4-3
  EC50: 10 nM

## IFN-α
[1]; genotype 1b replicon cells
  EC50: 1.2 IU/ml

## C=C[C@@H]1C[C@]1(NC(=O)[C@@H]1C[C@@H]2CN1C(=O)[C@H](C(C)(C)C)NC(=O)O[C@@H]1C[C@H]1CCCCCc1nc3ccc(OC)cc3nc1O2)C(=O)NS(=O)(=O)C1CC1 [Grazoprevir, grazoprevir (MK-5172)]
GT6a / 6a Wild type [2]
  EC50: 0.1 ± 0.02 nM
GT2b / 2b Wild type
  EC50: 6.1 ± 1.3 nM
3a A156G
  EC50: 614 ± 148 nM
6a D168A
  EC50: 103 ± 34 nM
GT4a / 4a Wild type [3]
  EC50: 1.2 ± 0.31 nM
GT3a / 3a Wild type [4]
  EC50: 83 ± 18 nM
GT6a / 6a Wild type [5]
  EC50: 0.89 ± 0.32 nM
GT6e
  EC50: 0.25 ± 0.01 nM
4d Wild type
  EC50: 0.18 ± 0.01 nM
4a A156T
  EC50: 296 ± 22 nM
2b D168V
  EC50: 88 ± 19 nM
2b A156V
  EC50: 2890 nM
2b D168A
  EC50: 347 ± 113 nM
4a D168H
  EC50: 25 ± 6.3 nM
6a D168V
  EC50: 24 ± 1.2 nM
3a Q168R
  EC50: 165 ± 46 nM
4a D168V
  EC50: 13 ± 1.1 nM
4a R155C
  EC50: 2 ± 0.27 nM
4a A156V
  EC50: 169 ± 27 nM
2b D168E
  EC50: 35 ± 6 nM
6a D168H
  EC50: 45 ± 4.1 nM
GT3a / 3a Wild type [6]
  EC50: 47 ± 14 nM
2b A156T
  EC50: 1560 nM
GT4a / 4a Wild type [7]
  EC50: 0.28 ± 0.04 nM
4d D168V
  EC50: 2.5 ± 0.08 nM

## NC(=O)c1ncn([C@@H]2O[C@H](CO)[C@@H](O)[C@H]2O)n1 [RBV, reference compound]
[1]; Hepatitis C virus
  EC50: 19000 nM
